Data taken from ChEMBL document CHEMBL1121420, “Preparation and antitumor activity of olivomycin A analogues” (1980).

What was measured:
Mus musculus [1] = assay: Average change in weight is tested in mice at a dose of 8 mg/kg; type: functional; parameters: unit not given here
Mus musculus [2] = assay: Average change in weight is tested in mice at a dose of 1 mg/kg; type: functional; parameters: unit not given here
P388 [3] = assay: Tested on P-388 Leukemia for median survival time treated to median survival time control when administered intraperitoneally at a dose of 8 mg/kg; type: functional, Mus musculus; settings: route intraperitoneal
P388 [4] = assay: Tested on P-388 Leukemia for median survival time treated to median survival time control when administered intraperitoneally at a dose of 1 mg/kg; type: functional, Mus musculus; settings: route intraperitoneal
P388 [5] = assay: Tested on P-388 Leukemia for median survival time treated to median survival time control when administered intraperitoneally at a dose of 2 mg/kg; type: functional, Mus musculus; settings: route intraperitoneal
Mus musculus [6] = assay: Average change in weight is tested in mice at a dose of 2 mg/kg; type: functional; parameters: unit not given here
Mus musculus [7] = assay: Average change in weight is tested in mice at a dose of 4 mg/kg; type: functional; parameters: unit not given here
P388 [8] = assay: Tested on P-388 Leukemia for median survival time treated to median survival time control when administered intraperitoneally at a dose of 4 mg/kg; type: functional, Mus musculus; settings: route intraperitoneal
Mus musculus [9] = assay: Average change in weight is tested in mice at a dose of 16 mg/kg; type: functional; parameters: unit not given here
P388 [10] = assay: Tested on P-388 Leukemia for median survival time treated to median survival time control when administered intraperitoneally at a dose of 16 mg/kg; type: functional, Mus musculus; settings: route intraperitoneal
Mus musculus [11] = assay: Average change in weight is tested in mice at a dose of 0.5 mg/kg; type: functional
P388 [12] = assay: Tested on P-388 Leukemia for median survival time treated to median survival time control when administered intraperitoneally at a dose of 0.25 mg/kg; type: functional, Mus musculus; settings: route intraperitoneal
P388 [13] = assay: Tested on P-388 Leukemia for median survival time treated to median survival time control when administered intraperitoneally at a dose of 0.5 mg/kg; type: functional, Mus musculus; settings: route intraperitoneal
Mus musculus [14] = assay: Average change in weight is tested in mice at a dose of 0.25 mg/kg; type: functional
P388 [15] = assay: Tested on P-388 Leukemia for median survival time treated to median survival time control when administered intraperitoneally at a dose of 4 mg/kg; Toxic; type: functional, organism-based; parameters: dose 4 mg/kg; settings: Mus musculus
Mus musculus [16] = assay: Average change in weight is tested in mice at a dose of 4 mg/kg; Toxic; type: functional, organism-based; parameters: dose 4 mg/kg
P388 [17] = assay: Tested on P-388 Leukemia for median survival time treated to median survival time control when administered intraperitoneally at a dose of 8 mg/kg; Toxic; type: functional, organism-based; parameters: dose 8 mg/kg; settings: Mus musculus
Mus musculus [18] = assay: Average change in weight is tested in mice at a dose of 8 mg/kg; Toxic; type: functional, organism-based; parameters: dose 8 mg/kg

Structure (SMILES) | Activity (Mus musculus [1]) | Activity (Mus musculus [2]) | T/C (P388 [3]) [%] | T/C (P388 [4]) [%] | T/C (P388 [5]) [%] | Activity (Mus musculus [6]) | Activity (Mus musculus [7]) | T/C (P388 [8]) [%] | Activity (Mus musculus [9]) | T/C (P388 [10]) [%] | Activity (Mus musculus [11]) | T/C (P388 [12]) [%] | T/C (P388 [13]) [%] | Activity (Mus musculus [14]) | T/C (P388 [15]) | Activity (Mus musculus [16]) | T/C (P388 [17]) | Activity (Mus musculus [18])
C/N=C(\C(O)C(C)O)C(OC)C1Cc2cc3cc(OC4CC(OC(C)=O)C(OC5CC(O)C(OC)C(C)O5)C(C)O4)cc(O)c3c(O)c2CC1OC1CC(OC2CC(OC3CC(C)(O)C(OC(=O)C(C)C)C(C)O3)C(O)C(C)O2)C(O)C(C)O1 (centres undefined) | -3.3 | 0.3 | 115 | 125 | 140 | -0.3 | 0.4 | 110 |  |  |  |  |  |  |  |  |  | 
COC(C(=O)C1OC(C)(C)OC1C)C1Cc2cc3cc(OC4CC(OC(C)=O)C(OC5CC(O)C(OC)C(C)O5)C(C)O4)cc(O)c3c(O)c2C(=O)C1OC1CC(OC2CC(OC3CC(C)(O)C(OC(=O)C(C)C)C(C)O3)C(O)C(C)O2)C(O)C(C)O1 (centres undefined) | 0.8 |  | 156 |  | 117 | 0.6 | 0.3 | 139 | 1.3 | 167 |  |  |  |  |  |  |  | 
COC(/C(=N/Nc1ccccc1)C(O)C(C)O)C1Cc2cc3cc(OC4CC(OC(C)=O)C(OC5CC(O)C(OC)C(C)O5)C(C)O4)cc(O)c3c(O)c2C(=O)C1OC1CC(OC2CC(OC3CC(C)(O)C(OC(=O)C(C)C)C(C)O3)C(O)C(C)O2)C(O)C(C)O1 (centres undefined) | 0.5 |  | 140 |  | 120 | 0.2 | 0.5 | 120 | 1.3 | 140 |  |  |  |  |  |  |  | 
COC(C(=O)C(O)C(C)O)C1Cc2cc3cc(OC4CC(OC(C)=O)C(OC5CC(O)C(OC)C(C)O5)C(C)O4)cc(O)c3c(O)c2CC1OC1CC(OC2CC(OC3CC(C)(O)C(OC(=O)C(C)C)C(C)O3)C(O)C(C)O2)C(O)C(C)O1 (centres undefined) | 1 | 1.1 | 150 | 110 | 150 | 0.7 | 0.7 | 140 |  |  |  |  |  |  |  |  |  | 
COc1cc(OC2CC(OC(C)=O)C(OC3CC(O)C(OC)C(C)O3)C(C)O2)cc2cc3c(c(OC)c12)C(=O)C(OC1CC(OC2CC(OC4CC(C)(O)C(OC(=O)C(C)C)C(C)O4)C(O)C(C)O2)C(O)C(C)O1)C(C(OC)C(=O)C(O)C(C)O)C3 (centres undefined) | 0.4 |  | 155 |  | 115 | 0.3 | 0.2 | 130 | 0.9 | 140 |  |  |  |  |  |  |  | 
COC(C(=O)C(O)C(C)O)C1Cc2cc3cc(OC4CC(OC(C)=O)C(OC5CC(O)C(OC)C(C)O5)C(C)O4)c(Br)c(O)c3c(O)c2C(=O)C1OC1CC(OC2CC(OC3CC(C)(O)C(OC(=O)C(C)C)C(C)O3)C(O)C(C)O2)C(O)C(C)O1 (centres undefined) | 0.1 |  | 150 |  | 110 | 0.3 | 1.2 | 120 | 0.1 | 130 |  |  |  |  |  |  |  | 
COc1cc(OC2CC(OC(C)=O)C(OC3CC(O)C(OC)C(C)O3)C(C)O2)cc2cc3c(c(O)c12)C(=O)C(OC1CC(OC2CC(OC4CC(C)(O)C(OC(=O)C(C)C)C(C)O4)C(O)C(C)O2)C(O)C(C)O1)C(C(OC)C(=O)C(O)C(C)O)C3 (centres undefined) |  | 1.3 |  | 144 | 156 | 0.7 | 1.3 | 156 |  |  | 1.3 | 106 | 133 | 1.3 |  |  |  | 
COC(/C(=N/NC(N)=O)C(O)C(C)O)C1Cc2cc3cc(OC4CC(OC(C)=O)C(OC5CC(O)C(OC)C(C)O5)C(C)O4)cc(O)c3c(O)c2C(=O)C1OC1CC(OC2CC(OC3CC(C)(O)C(OC(=O)C(C)C)C(C)O3)C(O)C(C)O2)C(O)C(C)O1 (centres undefined) | 1.2 |  | 110 |  | 85 | 1.8 | 1.3 | 110 | -2.3 | 105 |  |  |  |  |  |  |  | 
COC(/C(=N/O)C(O)C(C)O)C1Cc2cc3cc(OC4CC(OC(C)=O)C(OC5CC(O)C(OC)C(C)O5)C(C)O4)cc(O)c3c(O)c2C(=O)C1OC1CC(OC2CC(OC3CC(C)(O)C(OC(=O)C(C)C)C(C)O3)C(O)C(C)O2)C(O)C(C)O1 (centres undefined) | 0.8 |  |  | 100 | 155 | 1.3 | 0.8 |  |  |  |  |  | 100 |  | Toxic | Toxic |  | 
COC1C(O)CC(OC2C(C)OC(Oc3cc(O)c4c(O)c5c(cc4c3)CC(C(OC)C(O)C(O)C(C)O)C(OC3CC(OC4CC(OC6CC(C)(O)C(OC(=O)C(C)C)C(C)O6)C(O)C(C)O4)C(O)C(C)O3)C5)CC2OC(C)=O)OC1C (centres undefined) | 3.5 |  | 106 |  | 100 | 5.3 | 3.7 | 100 | 0.5 | 139 |  |  |  |  |  |  |  | 
COC(C(=O)C(O)C(C)O)C1Cc2cc3cc(OC4CC(OC(C)=O)C(OC5CC(O)C(OC)C(C)O5)C(C)O4)cc(O)c3c(O)c2C(=O)C1OC1CC(OC2CC(OC3CC(C)(O)C(OC(=O)C(C)C)C(C)O3)C(O)C(C)O2)C(O)C(C)O1 (centres undefined) |  | 0.3 |  | 130 | 146 | 0 | 0.4 | 157 |  |  | 1 |  | 114 |  |  |  |  | 
COC1C(O)CC(OC2C(C)OC(Oc3cc(O)c4c(O)c5c(cc4c3)CC(C(OC)C(O)C(O)C(C)O)C(OC3CC(OC4CC(OC6CC(C)(O)C(OC(=O)C(C)C)C(C)O6)C(O)C(C)O4)C(O)C(C)O3)C5=O)CC2OC(C)=O)OC1C (centres undefined) | 0.2 |  | 140 |  | 90 | 1.1 | 0.2 | 125 | 0.9 | 130 |  |  |  |  |  |  |  | 
CO/N=C(\C(O)C(C)O)C(OC)C1Cc2cc3cc(OC4CC(OC(C)=O)C(OC5CC(O)C(OC)C(C)O5)C(C)O4)cc(O)c3c(O)c2C(=O)C1OC1CC(OC2CC(OC3CC(C)(O)C(OC(=O)C(C)C)C(C)O3)C(O)C(C)O2)C(O)C(C)O1 (centres undefined) | 2.8 | 0.9 | 144 | 144 | 167 | 0.3 | 1.3 | 156 |  |  | 0.8 | 128 | 156 | 1.3 |  |  |  | 
COC(C(=O)C(O)C(C)O)C1Cc2cc3cc(OC4CC(OC(C)=O)C(OC5CC(O)C(OC)C(C)O5)C(C)O4)c([N+](=O)[O-])c(O)c3c(O)c2C(=O)C1OC1CC(OC2CC(OC3CC(C)(O)C(OC(=O)C(C)C)C(C)O3)C(O)C(C)O2)C(O)C(C)O1 (centres undefined) | 3.5 |  | 100 |  | 100 | 2.8 | 2 | 110 | 2.4 | 100 |  |  |  |  |  |  |  | 
C/N=C(\C(O)C(C)O)C(OC)C1Cc2cc3cc(OC4CC(OC(C)=O)C(OC5CC(O)C(OC)C(C)O5)C(C)O4)cc(O)c3c(O)c2C(=O)C1OC1CC(OC2CC(OC3CC(C)(O)C(OC(=O)C(C)C)C(C)O3)C(O)C(C)O2)C(O)C(C)O1 (centres undefined) |  | 1.1 |  | 122 | 140 | 0.1 | 2.4 | 155 |  |  |  |  |  |  |  |  | Toxic | Toxic
COC(C(=O)C1OC2(CCCCC2)OC1C)C1Cc2cc3cc(OC4CC(OC(C)=O)C(OC5CC(O)C(OC)C(C)O5)C(C)O4)cc(O)c3c(O)c2C(=O)C1OC1CC(OC2CC(OC3CC(C)(O)C(OC(=O)C(C)C)C(C)O3)C(O)C(C)O2)C(O)C(C)O1 (centres undefined) | 0.2 |  | 139 |  | 111 | 1 | 0 | 100 | 0.7 | 100 |  |  |  |  |  |  |  | 
